According to patent publication US20250163456A1, “AGENT FOR ENHANCING PRODUCTION OF VIRAL VECTOR AND METHOD FOR PRODUCING VIRAL VECTOR” (priority 2022, published 2025):

Tested on: HEK293 cells
Experiment: Evaluation of AAV vector-producing ability by treatment with chemical substance (rAAV1 virus titer by qPCR)
Type: cell-based, human
Settings: HEK293 cells producing rAAV1, serum-free E-MEM with chemical substance at various concentrations, 3 days culture, virus titer (v.g.) vs untreated control
Experimental: The cells of the immortalized cell line derived from the human embryonic kidney (HEK293 cells) purchased from ATCC (American Type Culture Collection) were cultured in E-MEM supplemented with 10% fetal bovine serum, penicillin, and streptomycin at 37° C. in the presence of 5% CO2.
The recombinant adeno-associated virus 1 (rAAV1) was prepared with the use of 3 types of plasmids: pAAV-ZsGreen1 (TaKaRa Bio), pAAV2/1, and pHelper. A mixture of 3 types of plasmids for preparation of rAAV1 was adjusted to bring the mixing ratio of DNA to Polyethylenimine Max (PEI:Polysciences) (DNA:PEI) to 1:2 in OPTI-MEM, and the reaction was allowed to proceed at room temperature for 15 minutes. […]
Genome DNA of rAAV1 was extracted to measure the virus titer. […] The virus titer was measured by real-time PCR in triplicate. qPCR was performed using primers targeting Zs-Green 1. […]
In the present example, effects of enhancing production of AAV vectors achieved with the use of chemical substances different from the chemical substances tested in Example 1 were measured in the same manner as in Example 1.
In the present comparative example, effects of enhancing production of AAV vectors were measured in the same manner as in Example 1, except for the use of ascorbic acid (2.5, 5, or 10 μg/ml) disclosed in the examples of WO 2021/138387. […]

SMILES: O=C1O[C@H]([C@@H](O)CO)C(O)=C1O [ascorbic acid]
- effects of enhancing the amount of production of AAV vectors: no significant differences were observed
